Test results taken from the NIST ThermoML archive (doi:10.1016/j.jct.2016.07.041).

Assay: xn = mol fraction of the nth substance listed
Details: 101 kPa, Liquid; for viscosity: Capillary tube (Ostwald / Ubbelohde) method; for mass density: Vibrating tube method

CCCCn1cc[n+](C)c1.F[B-](F)(F)F [1-butyl-3-methylimidazolium tetrafluoroborate] + O
Details	mass density, 293.15 K [kg/m3]	mass density, 303.15 K [kg/m3]	mass density, 313.15 K [kg/m3]	mass density, 323.15 K [kg/m3]	mass density, 333.15 K [kg/m3]	viscosity, 293.15 K [mPa·s]	viscosity, 303.15 K [mPa·s]	viscosity, 313.15 K [mPa·s]	viscosity, 323.15 K [mPa·s]	viscosity, 333.15 K [mPa·s]
x1 = 0.0998	1103.7	1097.3	1090.3	1083.4	1076.4	3.23	2.41	1.88	1.51	1.24
x1 = 0.1998	1141.5	1134.5	1126.9	1119.6	1112.2	5.52	4.12	3.2	2.56	2.1
x1 = 0.2994	1161.1	1153.8	1146.3	1139	1131.5	8.41	6.21	4.78	3.79	3.1
x1 = 0.3992	1173.4	1166	1158.7	1151.4	1144	12.3	8.95	6.79	5.34	4.31
x1 = 0.5005	1182.3	1175	1167.7	1160.5	1153.3	17.96	12.87	9.63	7.5	6
x1 = 0.5984	1188.9	1181.6	1174.3	1167.1	1160.1	25.98	18.1	13.27	10.11	7.99
x1 = 0.6985	1194.2	1187	1179.8	1172.6	1165.7	39.21	26.48	18.9	14.06	10.79
x1 = 0.7988	1198.5	1191.4	1184.3	1177.1	1170	59.53	38.86	26.55	19.05	14.31
x1 = 0.8982	1202	1195	1187.8	1180.6	1173.6	89.35	55.67	37.01	25.16	18.53
x1 = 1	1205.1	1198	1190.8	1183.7	1176.8	139.12	82.49	52.33	35.16	24.69

NCCO [2-aminoethan-1-ol] + CCCCn1cc[n+](C)c1.F[B-](F)(F)F
Details	mass density, 293.15 K [kg/m3]	mass density, 303.15 K [kg/m3]	mass density, 313.15 K [kg/m3]	mass density, 323.15 K [kg/m3]	mass density, 333.15 K [kg/m3]	viscosity, 293.15 K [mPa·s]	viscosity, 303.15 K [mPa·s]	viscosity, 313.15 K [mPa·s]	viscosity, 323.15 K [mPa·s]	viscosity, 333.15 K [mPa·s]
x2 = 0	1015.5	1007.6	999.7	991.7	983.6	23.65	14.75	9.78	6.81	4.99
x2 = 0.1001	1065.1	1057.3	1049.3	1041.4	1033.4	26.23	16.27	10.72	7.39	5.38
x2 = 0.2	1098.6	1090.6	1082.8	1075	1067.2	29.02	17.98	11.84	8.21	6.02
x2 = 0.2999	1123	1115.4	1107.6	1099.8	1092.1	32.91	20.36	13.45	9.29	6.82
x2 = 0.3751	1137.9	1130.3	1122.5	1114.8	1107.1	36.29	22.48	14.89	10.41	7.57
x2 = 0.5002	1157.4	1149.9	1142.3	1134.7	1127.1	43.39	26.71	17.78	12.4	9.11
x2 = 0.5997	1169.7	1162.5	1154.9	1147.4	1139.9	51.66	31.82	20.98	14.53	10.6
x2 = 0.6996	1180.2	1173	1165.4	1158.2	1150.7	61.28	37.57	24.39	17.03	12.51
x2 = 0.8	1189.4	1182.3	1174.8	1167.5	1160.3	75.78	46.5	30.43	21.12	15.41
x2 = 0.9003	1197.8	1190.6	1183.4	1176.1	1169.1	98.71	59.85	39.19	26.65	19.22

NCCO [2-aminoethan-1-ol] + O
Details	mass density, 293.15 K [kg/m3]	mass density, 303.15 K [kg/m3]	mass density, 313.15 K [kg/m3]	mass density, 323.15 K [kg/m3]	mass density, 333.15 K [kg/m3]	viscosity, 293.15 K [mPa·s]	viscosity, 303.15 K [mPa·s]	viscosity, 313.15 K [mPa·s]	viscosity, 323.15 K [mPa·s]	viscosity, 333.15 K [mPa·s]
x1 = 0.0996	1010.9	1006.8	1002.1	996.9	991.2	2.54	1.89	1.45	1.15	0.93
x1 = 0.1991	1021.6	1016.1	1010.2	1004	997.6	5.52	3.84	2.8	2.09	1.62
x1 = 0.2986	1027.4	1021	1014.4	1007.5	1000.4	10.06	6.65	4.62	3.35	2.52
x1 = 0.3977	1029.4	1022.5	1015.4	1007.8	1000.6	15.1	9.64	6.52	4.66	3.41
x1 = 0.4967	1028.9	1021.5	1014.2	1006.6	999	19.57	12.22	8.1	5.67	4.09
x1 = 0.5958	1027	1019.4	1011.9	1004.3	996.5	22.91	14.08	9.33	6.46	4.65
x1 = 0.6946	1024.4	1016.8	1009	1001.2	993.4	24.48	15.01	9.75	6.9	4.95
x1 = 0.7932	1021.6	1013.8	1006	998.2	990.2	25	15.36	9.98	6.91	4.99
x1 = 0.8919	1018.7	1010.8	1002.9	995	987	24.58	15.16	9.94	6.89	4.99
x1 = 1	1015.5	1007.6	999.7	991.7	983.6	23.65	14.75	9.78	6.81	4.99
